Data from PMC4291147, “Molecular Basis of Histone Tail Recognition by Human TIP5 PHD Finger and Bromodomain of the Chromatin Remodeling Complex NoRC” (Structure(London, England:1993), 2015).
Where no end group is shown, it is not given here.

Key:
BAZ2 BRD = test system: BAZ2 BRD; set-up: method as in Structural Genomics Consortium [SGC] website; settings: ref Structural Genomics Consortium [SGC] website; cited from earlier work
TIP5 PHD = molecular target: T1, TIP5 PHD (Homo sapiens, UniProt Q9UIF9); test: ITC, histone peptide binding to TIP5 PHD; settings: 20 mM HEPES (pH 7.5–8), 150 mM NaCl, 0.5 mM TCEP, 293 or 298 K, protein 60–120 μM in cell, peptide 800–1,500 μM in syringe, ± error of nonlinear least-squares fit
T1 construct: single PHD zinc fingers (residues 1673- 1728 for TIP5); residues; His6-SUMO (N, cleaved yes); made in house; host or cells: E. coli BL21(DE3) Rosetta or BL21(DE3)-R3-pRARE2
T1 sequence (Q9UIF9 1673-1728): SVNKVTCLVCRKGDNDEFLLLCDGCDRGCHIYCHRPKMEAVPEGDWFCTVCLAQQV
Procedure: (§1) All calorimetric experiments were performed on an ITC200 or VP-ITC microcalorimeters (MicroCal). Protein solutions were buffer exchanged by gel filtration into buffer (20 mM HEPES [pH 8], 150 mM NaCl, 0.5 mM Tris [2-carboxyethyl]phosphine [TCEP]), and lyophilized histone peptides were dissolved in the same buffer. All measurements were carried out at 293 or 298 K. Protein solutions (60–120 μM) in the calorimetric cell were titrated with the peptide solutions (800–1,500 μM) in the syringe. The data were analyzed with the MicroCal ORIGIN software package using, in most cases, a single binding site model. The first data point was excluded from the analysis. […]
(§2) The cDNAs encoding tandem PHD zinc finger and bromodomain of human TIP5 […]
(§3) GeneBank: Q9UIF8) were synthesized by GenScript with codons optimized f or E. coli. expression and were subcloned into a modif ied pET15 vector using NdeI/XhoI sites f or expression as recombinant proteins with a His6 tag fused with small ubiquitin like modifier (SUMO)-1 fusion tag at the N terminus. cDNA sequences were used as a template to amplify single PHD zinc fingers (residues 1673- 1728 for TIP5; residues 2054- 2168 f or BAZ2B) regions. […]

BAZ2B PHD = molecular target: T2, BAZ2B PHD (Homo sapiens, UniProt Q9UIF8); test: ITC, histone peptide binding to BAZ2B PHD; settings: 20 mM HEPES (pH 7.5–8), 150 mM NaCl, 0.5 mM TCEP, 293 or 298 K, protein 60–120 μM in cell, peptide 800–1,500 μM in syringe, ± error of nonlinear least-squares fit
T2 construct: 1928- 1983 for BAZ2B) and bromodomains; His6-SUMO (N, cleaved yes); made in house; host or cells: E. coli BL21(DE3) Rosetta or BL21(DE3)-R3-pRARE2
T2 sequence (Q9UIF8 1928-1983): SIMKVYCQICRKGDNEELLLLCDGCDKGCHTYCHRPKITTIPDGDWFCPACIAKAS
Procedure: as §1, §2, §3

TIP5 PHD-BRD = molecular target: T3, TIP5 PHD-BRD (Homo sapiens, UniProt Q9UIF9); test: ITC, histone peptide binding to tandem TIP5 PHD-BRD; settings: 20 mM HEPES (pH 7.5–8), 150 mM NaCl, 0.5 mM TCEP, 293 or 298 K, protein 60–120 μM in cell, peptide 800–1,500 μM in syringe, ± error of nonlinear least-squares fit
T3 construct: (residues 1673– 1901, UniProt: Q9UIF9); His6-SUMO (N, cleaved yes); made in house; host or cells: E. coli BL21(DE3) Rosetta or BL21(DE3)-R3-pRARE2
T3 sequence (Q9UIF9 1673-1901): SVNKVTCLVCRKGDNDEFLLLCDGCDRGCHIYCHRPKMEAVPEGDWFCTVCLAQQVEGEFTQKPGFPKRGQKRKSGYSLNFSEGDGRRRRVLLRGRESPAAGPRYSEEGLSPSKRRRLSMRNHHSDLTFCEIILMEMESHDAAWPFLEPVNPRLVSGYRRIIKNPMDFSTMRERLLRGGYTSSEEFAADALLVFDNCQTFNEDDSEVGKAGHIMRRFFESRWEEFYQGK
Procedure: as §1, §2, §3

BAZ2B PHD-BRD = molecular target: T4, BAZ2B PHD-BRD (Homo sapiens, UniProt Q9UIF8); test: ITC, histone peptide binding to tandem BAZ2B PHD-BRD; settings: 20 mM HEPES (pH 7.5–8), 150 mM NaCl, 0.5 mM TCEP, 293 or 298 K, protein 60–120 μM in cell, peptide 800–1,500 μM in syringe, ± error of nonlinear least-squares fit
T4 construct: human BAZ2B (residues 1928-2168,; His6-SUMO (N, cleaved yes); made in house; host or cells: E. coli BL21(DE3) Rosetta or BL21(DE3)-R3-pRARE2
T4 sequence (Q9UIF8 1928-2168): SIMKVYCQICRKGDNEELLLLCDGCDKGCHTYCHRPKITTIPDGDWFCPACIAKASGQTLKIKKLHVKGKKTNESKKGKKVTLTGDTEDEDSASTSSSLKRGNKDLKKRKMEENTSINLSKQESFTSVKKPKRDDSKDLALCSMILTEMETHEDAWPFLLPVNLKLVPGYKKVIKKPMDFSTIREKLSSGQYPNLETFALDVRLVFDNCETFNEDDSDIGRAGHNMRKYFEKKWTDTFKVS
Procedure: as §1, §2, §3

TIP5 BRD = molecular target: T5, TIP5 BRD (Homo sapiens, UniProt Q9UIF9); test: ITC, histone peptide binding to TIP5 BRD; settings: 20 mM HEPES (pH 7.5–8), 150 mM NaCl, 0.5 mM TCEP, 293 or 298 K
T5 construct: (residues 1797- 1899 for TIP5, residues); hexa-histidine (pNIC28-Bsa4, TEV site) (N, cleaved yes); made in house; host or cells: E. coli BL21(DE3) Rosetta or BL21(DE3)-R3-pRARE2
T5 sequence (Q9UIF9 1797-1899): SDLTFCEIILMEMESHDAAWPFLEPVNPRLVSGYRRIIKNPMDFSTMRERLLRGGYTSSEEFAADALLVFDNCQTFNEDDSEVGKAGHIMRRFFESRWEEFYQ
Procedure: All calorimetric experiments were performed on an ITC200 or VP-ITC microcalorimeters (MicroCal). […] The data were analyzed with the MicroCal ORIGIN software package using, in most cases, a single binding site model. The first data point was excluded from the analysis. […]
as §2
as §3, with “a” for “a template to amplify single PHD zinc fingers (residues 1673- 1728 for TIP5; residues 2054- 2168 f or BAZ2B) regions.”
Single PHD zinc f ingers were introduced into the same modif ied SUMO tagged plasmid whereas single bromodomains were f urther subcloned into pET28 derived expression vectors, pNIC28- Bsa4 using ligation independent […]
Protein Expression and Purification […]
(§4) competent BL21(DE3) Rosetta cells (Invitrogen) or into BL21 (DE3)-R3-pRARE2 cells (phage- resistant derivative with a pRARE plasmid encoding rare codon tRNAs). Cells were grown at 37 °C in Terrific Broth (Sigma) from overnight cultures until A600 reached between 0.6- 0.8, then the media was cooled and 0.2 mM isopropyl-β-Dthiogalactopyranoside (IPTG) was added to induce the protein expression at 20 °C f or 16 hours. An extra 0.1 mM ZnCl 2 was added in the protein expression to those targets that contained a PHD zinc f inger.
Different purification procedures have been optimized for each target protein. In common, E. coli overexpressed cells were lysed using an EmulsiFlex-C5 hig h-pr es s ure homogenizer (Avestin - Mannheim, Germany) or high -pressure cell disruption (Constant Systems Limited) in loading buffer A from the nickel affinity column (HisTrap Chelating FF 5ml) in the presence of Protease Inhibitor Cocktail EDTA-free (Roche). […]
on a Beckman Coulter Avanti J-20 XP centrif uge). After centrif ugation, the supernatant was loaded onto the nickel column and eluted in an imidazole linear gradient. The

BAZ2B BRD = molecular target: T6, BAZ2B BRD (Homo sapiens, UniProt Q9UIF8); test: ITC, histone peptide binding to BAZ2B BRD; settings: 20 mM HEPES (pH 7.5–8), 150 mM NaCl, 0.5 mM TCEP, 293 or 298 K
T6 construct: 2054- 2168 f or BAZ2B) regions; hexa-histidine (pNIC28-Bsa4, TEV site) (N, cleaved yes); made in house; host or cells: E. coli BL21(DE3) Rosetta or BL21(DE3)-R3-pRARE2
T6 sequence (Q9UIF8 2054-2168): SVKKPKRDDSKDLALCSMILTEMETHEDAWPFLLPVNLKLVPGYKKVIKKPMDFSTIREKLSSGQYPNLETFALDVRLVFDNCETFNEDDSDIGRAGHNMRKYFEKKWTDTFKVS
Procedure: as §1, §2
GeneBank: Q9UIF8) were synthesized by GenScript with codons optimized f or E. coli. expression and were subcloned into a modif ied pET15 vector using NdeI/XhoI sites f or expression as recombinant proteins with a His6 tag fused with small ubiquitin like modifier (SUMO)-1 fusion tag at the N terminus. cDNA sequences were used as a template to amplify single PHD zinc fingers (residues 1673- 1728 for TIP5; residues 2054- 2168 f or BAZ2B) regions. Single PHD zinc f ingers were introduced into the same modif ied SUMO tagged plasmid whereas single bromodomains were f urther subcloned into pET28 derived expression vectors, pNIC28- Bsa4 using ligation independent cloning (Stols et al., 2002).
Protein Expression and Purification
as §4, with “Best expression constructs encoding all target proteins were transformed into E. coli competent” for “competent”
Different purification procedures have been optimized for each target protein. In common, E. coli overexpressed cells were lysed using an EmulsiFlex-C5 hig h-pr es s ure homogenizer (Avestin - Mannheim, Germany) or high -pressure cell disruption (Constant Systems Limited) in loading buffer A from the nickel affinity column (HisTrap Chelating FF 5ml) in the presence of Protease Inhibitor Cocktail EDTA-free (Roche).
Lysates were cleared by centrif ugation (14,000 x g f or 45m in at 4 °C, JLA 16.250 rotor, on a Beckman Coulter Avanti J-20 XP centrif uge). After centrif ugation, the supernatant was loaded onto the nickel column and eluted in an imidazole linear gradient. The

[1] = ITC, protein 60–120 μM in cell, peptide 800–1,500 μM in syringe, ± error of nonlinear least-squares fit

Compound: CCCOc1ccn2c(C(C)=O)cc(-c3ccccc3S(C)(=O)=O)c2c1 [GSK2801]
- potency/selectivity in words (BAZ2 BRD): selective nanomolar

Compound: CNCCCC[C@H](NC(=O)[C@@H](NC(=O)[C@H](CCCNC(=N)N)NC(=O)[C@H](C)N)[C@@H](C)O)C(=O)N[C@@H](CCC(N)=O)C(=O)N[C@H](C(=O)N[C@@H](C)C(=O)N[C@@H](CCCNC(=N)N)C(=O)N[C@@H](CCCCN)C(=O)O)[C@@H](C)O [H3(1–9)K4me]
- Kd (TIP5 PHD): 2500 ± 430 nM
- Kd (BAZ2B PHD): 3.98 ± 0.61 µM

Compound: C[C@H](N)C(=O)N[C@@H](CCCNC(=N)N)C(=O)N[C@H](C(=O)N[C@@H](CCCCN)C(=O)N[C@@H](CCC(N)=O)C(=O)N[C@H](C(=O)N[C@@H](C)C(=O)N[C@@H](CCCNC(=N)N)C(=O)N[C@@H](CCCCN)C(=O)O)[C@@H](C)O)[C@@H](C)O [H3(1–9)]
- Kd (TIP5 PHD): 2510 ± 630 nM
- Kd (BAZ2B PHD): 3.07 ± 0.71 µM

Compound: CC(=O)NCCCC[C@H](NC(=O)CNC(=O)CNC(=O)[C@@H](NC(=O)[C@H](CO)NC(=O)[C@H](CCCCN)NC(=O)[C@H](CCCNC(=N)N)NC(=O)[C@H](C)NC(=O)[C@@H](NC(=O)[C@H](CCC(N)=O)NC(=O)[C@H](CCCCN)NC(=O)[C@@H](NC(=O)[C@H](CCCNC(=N)N)NC(=O)[C@H](C)N)[C@@H](C)O)[C@@H](C)O)[C@@H](C)O)C(=O)N[C@@H](C)C(=O)N1CCC[C@H]1C(=O)N[C@@H](CCCNC(=N)N)C(=O)N[C@@H](CCCCN)C(=O)O [H3(1–18)K14ac]
- Kd (TIP5 PHD-BRD): 1870 ± 290 nM
- Kd (BAZ2B PHD-BRD): 2330 ± 190 nM

Compound: GAK(Ac)RHRK(Ac)VL [H4(14–22)K16acK20ac]
- Kd (TIP5 BRD; [1]): 26.1 ± 0.37 µM
- Kd (BAZ2B BRD; [1]): 42.41 ± 0.42 µM

Compound: GAK(Ac)RHRKVL [H4(14–22)K16ac]
- N (TIP5 BRD; ITC stoichiometry, ± fit error): 1.186 ± 0.015
- TΔS (TIP5 BRD; ITC): -6.533 kcal/mol
- ΔG (TIP5 BRD; ITC): -6.207 kcal/mol
- TΔS (TIP5 BRD; ITC, listed as H4(14-22)K16ac): -6.533 kcal/mol
- ΔG (TIP5 BRD; ITC, listed as H4(14-22)K16ac): -6.206 kcal/mol
- ΔH (TIP5 BRD; ITC, ± fit error): -12.740 ± 0.226 kcal/mol
- ΔH (TIP5 BRD; ITC, ± fit error, listed as H4(14-22)K16ac): -12.740 ± 0.226 kcal/mol
- N (BAZ2B BRD; ITC stoichiometry, ± fit error): 1.062 ± 0.064
- TΔS (BAZ2B BRD; ITC): 2.989 kcal/mol
- ΔG (BAZ2B BRD; ITC): -5.809 kcal/mol
- ΔH (BAZ2B BRD; ITC, ± fit error): -2.820 ± 0.223 kcal/mol

Compound: GGK(Ac)GLGK(Ac)G [H4(6–13)K8acK12ac]
- Kd (TIP5 BRD; [1]): 63.25 ± 0.11 µM

Compound: Gly-Ala-Kac-Arg-His-Ala-Lys-Val-Leu [H4(14-22)K16ac [R19A], mutated H4K16ac peptide, R19 to A19]
- KD (TIP5 BRD; [1]): no binding

Compound: Lys-Ser-Thr-Gly-Gly-Kac-Ala-Pro-Ala-Gln [H3(9-19)K14ac [R17A], mutated H3K14ac peptide, R17 to A17]
- KD (BAZ2B BRD; [1]): no binding
